From ChEMBL document CHEMBL4715850, “Exploiting binding-site arginines in drug design: Recent examples” (Bioorg Med Chem Lett, 2020) come the findings set out here.

Structures are written as SMILES.

The experiment addresses S-adenosylmethionine synthase isoform type-2 (Homo sapiens, UniProt P31153). In words: Allosteric inhibition of MAT2A (unknown origin) expressed in Escherichia coli BL21(DE3) assessed as reduction in S-adenosyl-methionine formation using methionine as substrate in presence of ATP by ELISA. (In an ELISA, binding on a coated surface is turned into a signal by an enzyme label.)

Chain of S-adenosylmethionine synthase isoform type-2 (P31153 whole entry, canonical isoform): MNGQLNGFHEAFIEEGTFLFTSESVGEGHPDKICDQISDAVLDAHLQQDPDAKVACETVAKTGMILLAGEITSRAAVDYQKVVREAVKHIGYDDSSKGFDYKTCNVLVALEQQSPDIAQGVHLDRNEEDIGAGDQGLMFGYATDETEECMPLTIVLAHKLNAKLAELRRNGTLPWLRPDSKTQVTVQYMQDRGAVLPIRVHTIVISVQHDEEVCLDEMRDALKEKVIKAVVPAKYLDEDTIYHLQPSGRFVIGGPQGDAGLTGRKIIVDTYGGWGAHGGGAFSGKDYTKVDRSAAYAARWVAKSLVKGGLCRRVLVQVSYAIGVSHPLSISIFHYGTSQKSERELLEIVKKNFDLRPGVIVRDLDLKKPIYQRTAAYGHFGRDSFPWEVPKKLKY

Take `COc1ccc2c(=O)c(C)c(-c3ccnc(-c4ccc(OC(F)(F)F)cc4)c3)[nH]c2c1`: the 50% inhibitory concentration (IC50) worked out at 283 nM.

As usually defined, the IC50 is the concentration needed to halve the response being measured.
